Where two headings read alike, the source gives them in different places.
Experiments:
[1] = target: T1, CamK2a (Homo sapiens, UniProt Q9UQM7); assay: In-vitro kinase profiling, radioisotope screening assay (Signal Chem); assay type: biochemical; settings: 5 μM compound, 50 μM ATP, vs vehicle control; negative = inhibition
T1 construct: purchased Signal Chem (Richmond, BC, Canada)
Description: (§1) Kinase profiling of PK analogs. The inhibitory effect of lead PK analogs were tested against a panel of 15 protein kinase targets (TABLE 1) to develop better lead candidates without “off” target effects. The selectivity assay was performed at Signal Chem™ (Richmond, BC, Canada) by profiling against protein kinase targets using the “Gold Standard” radioisotope screening assay format. This assay format gave the highest signal noise ratio and allowed the direct measurement of catalytic activity of a protein kinase.
(§2) All assays were performed in triplicate in a 96-well assay format and the % error between triplicates is <10%. Protein kinase assays was performed in the presence of 50 μM ATP at 30° C. for 15 min. The activity of the enzymes in the presence of 5 μM PK analogs was compared to that in the vehicle control and expressed as a percent change in activity relative to that observed in the vehicle control. In TABLE 1, the results are expressed as percent activity change compared to control. The intra-assay variability was determined to be less than 10%. Inhibition of target activity by the compound is shown by a negative value, while activation of target activity is shown by positive value, with values >10% considered to be highly significant.

[2] = target: T2, JNK3 (Homo sapiens, UniProt P53779); assay: as above; assay type: biochemical; settings: for % activity change: 5 μM compound, 50 μM ATP, vs vehicle control, negative = inhibition; for inhibited by % compared to control: 5 μM concentration, given as positive inhibition
T2 construct: purchased Signal Chem (Richmond, BC, Canada)
Description: as §1, §2

[3] = target: PKCδ (Homo sapiens, UniProt Q05655); assay: In vitro 32P phosphorylation kinase assay with histone substrate; assay type: biochemical; settings: for % activity change 3 μM: 3 μM compound, negative = inhibition
Description: Since PK analogs are directed against PKCδ, it was first determined whether the analogs would inhibit PKCδ enzyme activity in kinase assays. The ability of lead PK analogs to inhibit purified human recombinant PKCδ enzyme activity by 32P phosphorylation kinase assay with histone as the substrate was measured. The in vitro kinase assays were performed with human recombinant PKCδ in the presence or absence of 0.3-10 μM lead PK analogs in the presence histone substrate, [^32P]-ATP and phospholipids. The extent of histone phosphorylation was determined after separation in SDS-PAGE and by phosphoimaging. IC50 was obtained using sigmoidal dose-response curve and non-linear regressional analysis using Graphpad Prism software.
In vitro kinase assays were performed with human recombinant PKCδ in the presence or absence of 0.3-10 μM lead PK analogs in the presence histone substrate, [^32P]-ATP and phospholipids. The extent of histone phosphorylation was determined after separation in SDS-PAGE and by phosphoimaging.

[4] = system: N27 cells; settings: 300 μM MPP+ 24 hr
Description: (§3) At the end of the treatment, cytotoxicity was measured using the Sytox cell death assay in a 96-well fluorescence microplate reader.
A second generation of rottlerin analogs was further utilized for neuroprotection studies, as shown as PK201-203 in FIG. 2.
as §3
The analogs were tested in an N27 dopaminergic cell model for their neuroprotective properties. […] At the end of the treatment, cytotoxicity was measured using the Sytox cell death assay in a 96-well fluorescence microplate reader.
(§4) Rat mesencephalic dopaminergic clonal cells (N27) were used and maintained in RPMI 1640 complete medium supplemented with 10% Fetal Bovine Serum, 1% […] and 1% Penicillin/Streptomycin in a 37° C. incubator with 5% CO2. After 4-6 days in culture, the cells were used for the experiments.
(§5) N27 cells were exposed to MPP^+ for 24 hr in the presence or absence of PK analogs in the dose range of 1-30 μM.

[5] = system: caspase-3 activity in N27 cells; assay: MPP+-induced caspase-3 activity assay in N27 cells; assay type: cell-based, rat; settings: for relative protection against MPP+-induced caspase-3 activity within the generation / blockage of MPP+-induced caspase-3 activity: 300 μM MPP+ 24 hr; for relative protection against MPP+-induced caspase-3 activity within the generation: 0.3-10 μM; for blockage of MPP+-induced caspase-3 activity: co-treated with 0.3, 1, 3 and 10 μM
Description: To determine whether PK analogs are neuroprotective against MPP+-induced increases in caspase-3 and DNA fragmentation, their effects on MPP+-induced increases in caspase-3 activity and DNA fragmentation, markers of apoptotic cell death, were examined.
The second generation PK analogs were further tested to determine whether the analogs are neuroprotective against MPP+-induced apoptotic cell death. The effects on MPP+-induced increases in caspase-3 enzymatic activity were analyzed, a marker of apoptotic cell death. […] At the end of the treatment, cytotoxicity was measured using the caspase-3 assay in a 96-well fluorescence microplate reader.
The third generation PK analogs were further tested to determine whether the analogs are neuroprotective against MPP+-induced apoptotic cell death. The effects on MPP+-induced increases in caspase-3 enzymatic activity were examined, a marker of apoptotic cell death. N27 cells were exposed to 300 μM MPP+ for 24 hr in the presence or absence of three different PK compounds in the dose range of 0.3-10 μM. At the end of the treatment, cytotoxicity was measured using the caspase-3 assay in a 96-well fluorescence microplate reader.
as §4, §5

[6] = system: C57 black mice; assay: Acute MPTP mouse model of PD, locomotor activity (VersaMax Analyzer); assay type: in vivo; settings: MPTP 4 x 18 mg/kg i.p.; 10 mg/kg oral gavage, 7 days
Description: (§6) Lead PK analogs protect against behavioral deficits and neurochemical loss in a preclinical MPTP-induced mouse model of PD. After characterizing the neuroprotective effect of PK analogs in cell culture models of PD, as a proof of principle, preliminary evaluation of two lead PK analogs in an acute MPTP animal model of PD were conducted. C57 black mice received 4 doses of MPTP at 18 mg/kg i.p at 2 hr interval. Oral administration of lead PK analogs (10 mg/kg body wt, oral gavage) was started 1 day before MPTP insult and continued for 7 days. 1% DMSO was used as the vehicle control. Locomotor activity was measured using the VersaMax Analyzer 1-2 days before sacrificing the mice. Mice were sacrificed after 7 days of MPTP injection. (n=5). (**p<0.01: PK analogs versus MPTP).

[7] = system: C57 black mice; assay: Acute MPTP mouse model of PD, striatal dopamine and DOPAC; assay type: in vivo; settings: MPTP 4 x 18 mg/kg i.p.; 10 mg/kg oral gavage, 7 days
Description: as §6

[8] = system: C57 black mice; assay: MPTP mouse model, tyrosine hydroxylase (TH) immunostaining of substantia nigra; assay type: in vivo; settings: MPTP 4 x 18 mg/kg i.p.; 10 mg/kg oral gavage, 7 days
Description: PK analogs attenuate dopaminergic neuronal cell loss induced by MPTP toxicity in mouse substantia nigra. Lead PK analogs were examined to determine whether they could protect against MPTP-induced dopaminergic neuronal loss in C57 black mice. Mice received 4 doses of MPTP at 18 mg/kg i.p. at 2 hr interval. Oral administration of PK analogs (10 mg/kg body wt, oral gavage) was continued for 7 days. Mice were sacrificed after 7 days of MPTP injections. (n=5).
Abbreviataions: M: MPTP; SNpc: substantia nigra pars compacta; SNl: substantia nigra lateralis; SNr: substantia nigra reticularis; VTA: Ventral tegmental area.

[9] = LC-MS-MS detection in mouse brain after oral administration; assay type: in vivo
Text: Bioavailability of Lead PK analogs. LC-MS-MS detection of lead PK analogs PK202 and PK8302 analog in mouse brain was completed.

[10] = 0.3-10 μM, histone substrate, [32P]-ATP, phospholipids, read-out: IC50
[11] = co-treated with 0.3, 1 and 3 μM
[12] = mouse brain, oral administration (oral gavage)

T2 sequence (P53779 whole entry): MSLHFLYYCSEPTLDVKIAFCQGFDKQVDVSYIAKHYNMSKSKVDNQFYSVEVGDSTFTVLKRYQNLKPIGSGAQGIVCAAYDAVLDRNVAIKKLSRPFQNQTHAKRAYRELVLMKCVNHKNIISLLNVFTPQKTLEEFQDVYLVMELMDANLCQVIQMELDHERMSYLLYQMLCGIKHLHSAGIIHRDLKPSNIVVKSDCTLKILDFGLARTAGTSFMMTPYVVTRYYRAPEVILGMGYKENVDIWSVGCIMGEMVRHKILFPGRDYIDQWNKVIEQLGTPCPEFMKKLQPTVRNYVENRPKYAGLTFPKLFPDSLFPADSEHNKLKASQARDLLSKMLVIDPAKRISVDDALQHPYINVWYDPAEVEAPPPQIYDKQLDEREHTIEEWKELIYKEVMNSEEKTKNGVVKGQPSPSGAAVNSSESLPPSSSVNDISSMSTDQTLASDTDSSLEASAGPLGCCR
T1 sequence (Q9UQM7 whole entry): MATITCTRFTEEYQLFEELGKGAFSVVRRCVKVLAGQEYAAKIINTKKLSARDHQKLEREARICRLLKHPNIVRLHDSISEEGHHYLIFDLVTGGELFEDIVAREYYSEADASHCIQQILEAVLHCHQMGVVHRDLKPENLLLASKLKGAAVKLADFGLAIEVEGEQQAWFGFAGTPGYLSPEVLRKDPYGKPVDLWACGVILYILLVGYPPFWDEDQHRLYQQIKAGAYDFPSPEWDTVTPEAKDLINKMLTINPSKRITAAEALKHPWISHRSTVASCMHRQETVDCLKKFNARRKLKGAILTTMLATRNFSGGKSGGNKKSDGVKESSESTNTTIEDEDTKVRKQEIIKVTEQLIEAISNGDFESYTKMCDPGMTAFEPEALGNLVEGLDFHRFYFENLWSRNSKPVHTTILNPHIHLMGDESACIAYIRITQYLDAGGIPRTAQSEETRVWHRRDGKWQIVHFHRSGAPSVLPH
Sequence of PKCδ (Q05655 whole entry): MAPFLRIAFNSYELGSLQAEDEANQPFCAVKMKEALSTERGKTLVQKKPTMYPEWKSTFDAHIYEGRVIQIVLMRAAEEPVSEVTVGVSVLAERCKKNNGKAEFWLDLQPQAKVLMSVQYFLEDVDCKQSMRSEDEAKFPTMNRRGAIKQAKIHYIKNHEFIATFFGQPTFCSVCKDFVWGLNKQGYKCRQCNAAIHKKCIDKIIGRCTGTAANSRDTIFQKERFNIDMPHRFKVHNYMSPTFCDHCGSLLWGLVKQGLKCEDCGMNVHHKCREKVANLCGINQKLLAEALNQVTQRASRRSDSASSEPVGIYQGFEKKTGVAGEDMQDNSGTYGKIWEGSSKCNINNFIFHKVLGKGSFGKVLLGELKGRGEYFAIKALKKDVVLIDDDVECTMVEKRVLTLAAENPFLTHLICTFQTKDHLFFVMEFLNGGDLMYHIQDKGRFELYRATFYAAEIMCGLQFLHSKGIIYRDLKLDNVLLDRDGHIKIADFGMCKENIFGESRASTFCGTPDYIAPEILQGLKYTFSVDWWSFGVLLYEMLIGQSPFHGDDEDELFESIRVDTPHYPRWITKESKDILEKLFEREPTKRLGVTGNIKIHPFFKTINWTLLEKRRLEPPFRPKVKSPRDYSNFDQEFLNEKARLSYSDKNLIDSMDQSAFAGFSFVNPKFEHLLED

Row | Structure (SMILES) | % activity change [1] | % activity change [2] | inhibited by % compared to control [2] | % activity change 3 μM [3] | IC50 [3, 10] | blockage of MPP+-induced cytotoxicity ([4]; co-treated with 3 μM) | blockage of MPP+-induced increases in caspase-3 activation ([5]; co-treated with 3 μM) | horizontal locomotor deficits [6] | vertical locomotor deficits [6] | striatal DOPAC depletion [7] | striatal dopamine depletion [7] | protection against MPTP-induced nigral dopaminergic degeneration (TH immunostaining) [8] | relative potency against MPP+-induced cytotoxic cell death within the generation [4] | blockage of MPP+-induced cytotoxicity [4, 11] | relative protection against MPP+-induced caspase-3 activity within the generation [5] | blockage of MPP+-induced caspase-3 activity [5] | level detected in substantia nigra by LC-MS-MS [9, 12] | level detected in substantia nigra by LC-MS-MS ([9]; mouse, in vivo, po) | IC50 [3]
1 | Oc1cc(O)c(Cc2c(O)cc(O)cc2O)c(O)c1 [PK103] | 6% | −12% | 12% | −65% | 5.98 µM | significant blockage | significant blockage | significantly improved | significantly improved | attenuated | attenuated | significant protection |  |  |  |  |  |  | 
2 | CC(=O)c1c(O)c(C)c(O)c(Cc2c(O)c3c(c4c2OC(c2ccccc2)CC4=O)OC(C)(C)C=C3)c1O (stereo not shown) [PK202] | 6% | −12% | 12% | −67% | 0.97 µM |  |  | significantly improved | significantly improved | attenuated | attenuated | significant protection | most potent inhibitor | significant blockage | more effectively protects | dose-dependent blockage | Significant amounts |  | 
3 | CC1(C)C=Cc2c(O)cc(O)c(C(=O)/C=C/c3ccccc3)c2O1 [PK302] | 5% | −10% |  | −73% | 1.99 µM |  |  | significantly improved | significantly improved | attenuated | attenuated | significant protection | more potent inhibitors than PK301 | significant blockage | more effectively protect | significant blockage |  | Significant amounts | 
4 | CC(=O)c1c(O)c(C)c(O)c(Cc2c(O)c3c(c(C(=O)/C=C/c4ccccc4)c2O)OC(C)(C)C=C3)c1O [Rottlerin, (E)-1-[6-[(3-acetyl-2,4,6-trihydroxy-5-methylphenyl)methyl]-5,7-dihydroxy-2,2-dimethylchromen-8-yl]-3-phenylprop-2-en-1-one] | 7% | 7% |  | −40% |  |  |  |  |  |  |  |  |  |  |  |  | Significant levels |  | 13.6 µM
